Experimental findings from publication PMC5213647, “Honokiol as a specific collagen receptor glycoprotein VI antagonist on human platelets: Functional ex vivo and in vivo studies” (Scientific Reports, 2017) are described below.

The test concerns the target T1, collagen receptor glycoprotein VI (GP VI) (Homo sapiens, UniProt Q9HCN6).
T1 construct: gene GP6; native full-length receptor, captured from total human platelet lysate by immobilised anti-GP VI mAb on SPR chip; described as 60-65 kDa type I transmembrane glycoprotein
T1 sequence (Q9HCN6 21-339): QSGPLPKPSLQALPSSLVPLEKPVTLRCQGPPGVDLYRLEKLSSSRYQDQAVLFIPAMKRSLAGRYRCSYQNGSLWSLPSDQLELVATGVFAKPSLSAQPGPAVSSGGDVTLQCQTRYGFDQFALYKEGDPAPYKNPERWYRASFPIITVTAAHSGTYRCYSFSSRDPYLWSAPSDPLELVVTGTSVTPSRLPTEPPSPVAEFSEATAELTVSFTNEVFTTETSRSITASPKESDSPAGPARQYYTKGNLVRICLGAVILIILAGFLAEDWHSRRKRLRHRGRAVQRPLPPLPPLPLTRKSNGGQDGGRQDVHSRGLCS
In words: SPR (ProteOn XPR36), GP VI captured by immobilised anti-GP VI mAb, kinetic […] Langmuir fit. The test is classed as binding. To be noted: PBS with 0.005% Tween 20, pH 7.4, 25 °C; native GP VI captured from platelet lysate; analyte only 10 and 100 μM.

A word on the Kd: it is the constant that tells how readily two partners part at equilibrium. A high value points to a looser complex. Consider `C=CCc1ccc(O)c(-c2ccc(O)c(CC=C)c2)c1` [Honokiol], for which the Kd stood at 289 µM.
